Assay results as given in US10750729B2, “Pig for atrioventricular block model, monkey for atrioventricular block model, guinea pig for atrioventricular block model, and use thereof” (Toho University, priority 2012, dated 2020).
Values joined by “and” are separate entries in the source; they are usually repeats but may differ in a detail not shown here. Equal entries are not always repeated.

Tests used:
[1] = tested on: Extremely small-size miniature pigs (Microminipig); experiment: Test Example 1: electrocardiogram of halothane-anesthetized extremely small-size miniature pigs; format: in vivo; details: pig; for Heart rate (HR) / PR interval / QT interval / RR interval: 0.1 mg/kg/10 min i.v., individuals #1, #2, 0.1 mg/kg
Text: Extremely small-size miniature pigs (trade name: Microminipig, body weight: about 10 kg, male, obtained from Fuji Micra Inc.) were each anesthetized by allowing them to inhale 100% by volume oxygen and 4% by volume vaporized halothane (product of Takeda Pharmaceutical Company Limited.). After insertion of a tracheal cannula, an artificial respirator was used to ventilate it with 100% by volume oxygen and 1% by volume vaporized halothane. Here, the artificial respirator for experimental animals was set to a tidal volume of 10 mL/kg and a respiration rate of 20 strokes/min. Next, a cannula for drug administration was inserted to their left femoral vein. Then, ECG standard limb II leads was continuously recorded.
Each of the extremely small-size miniature pigs (n=2) of Example 1 was recorded for an electrocardiogram before drug administration.
(§1) Fingolimod (FTY720, product of Sigma-Aldrich Inc.) was dissolved in physiological saline (product of Otsuka Pharmaceutical Factory, Inc.) so as to have a concentration of 0.1 mg/mL.
(§2) After the evaluation of base control, the cannula for drug administration was inserted, and the above-prepared FTY720 solution was intravenously administered to each of the extremely small-size miniature pigs (n=2) of Example 1 for 10 min at a dose of 0.1 mg/kg. An electrocardiogram was recorded for 60 min from the start of administration of the FTY720 solution.

[2] = tested on: Monkeys (Macaca fascicularis); experiment: Test Example 2: electrocardiogram of halothane-anesthetized monkeys; format: in vivo; details: monkey, 50 min after the administration
Protocol: (§3) Monkeys (Macaca fascicularis, body weight: about 3 kg, male, produced in China, purchased from a domestic breeder) were each anesthetized by intravenously administering thereto sodium thiopental (product of Mitsubishi Tanabe Pharma Corporation) at 25 mg/kg. After insertion of a tracheal cannula, an artificial respirator was used to ventilate it with 100% by volume oxygen and 1% by volume vaporized halothane. Here, the artificial respirator for experimental animals was set to a tidal volume of 20 mL/kg and a respiration rate of 15 strokes/min. Next, a cannula for drug administration was inserted to their left femoral vein. Then, ECG standard limb II leads was continuously recorded.
Each of the monkeys (n=2) of Example 2 was recorded for an electrocardiogram before drug administration.
as §1
as §2, with “the monkeys” for “the extremely small-size miniature pigs”, “Example 2” for “Example 1”

Dogs = experiment: Comparative Test Example 1: electrocardiogram of halothane-anesthetized dogs; format: in vivo; details: dog, 30 min recording
Protocol: as §3, with “Dogs (body” for “Monkeys (Macaca fascicularis, body”, “10” for “about 3”, “obtained” for “produced in China, purchased”, “Nosan Co., Ltd.)” for “a domestic breeder)”, “30” for “25”
Each of the dogs (n=4) of Comparative Example 1 was recorded for an electrocardiogram before drug administration.
Fingolimod (FTY720, product of Sigma-Aldrich Inc.) was dissolved in 1% by mass lactic acid solution (product of Otsuka Pharmaceutical Factory, Inc.) so as to have a concentration of 0.3 mg/mL.
(§4) After the evaluation of base control, the cannula for drug administration was inserted, and the above-prepared FTY720 solution was intravenously administered to each of the dogs (n=4) of Comparative Example 1 for 10 min at a dose of 0.3 mg/kg. An electrocardiogram was recorded for 30 min from the start of administration of the FTY720 solution.
Fingolimod (FTY720, product of Sigma-Aldrich Inc.) was dissolved in 1% by mass lactic acid solution (product of Otsuka Pharmaceutical Factory, Inc.) so as to have a concentration of 3 mg/mL.
as §4, with “3” for “0.3”

mouse = details: dose 10 times to 30 times greater than that for human; cited from earlier work
dog = details: dose 10 times to 30 times greater than that for human; cited from earlier work
[3] = 10 min after the administration
[4] = 60 min after the administration
[5] = 0.1 mg/kg/10 min i.v., individuals #1, #2, 0.1 mg/kg

PR interval [1, 3]: 78 ms and 71 ms
RR interval [1, 3]: 438 ms and 311 ms
PR interval [1, 4]: 75 ms and 89 ms
RR interval [1, 4]: 304 ms and 552 ms
PR interval change versus base control ([2]; 0.1 mg/kg i.v.): prolongation of PR interval was observed
PR interval [2, 5]: 71 ms and 110 ms
change in PR interval (Dogs; high-dose 3 mg/kg/10 min i.v.): no change
change in PR interval (Dogs; low-dose 0.3 mg/kg/10 min i.v.): no significant change
SMILES: CCCCCCCCc1ccc(CCC(N)(CO)CO)cc1 [FTY720, Fingolimod]
QT interval change versus base control ([1]; 0.1 mg/kg i.v., 10 min after the administration): prolongation of QT interval was observed
PR interval change versus base control ([1]; 0.1 mg/kg i.v., 60 min after the administration): prolongation of PR interval was also observed
Heart rate (HR) [1, 3]: 137 beats/min and 192 beats/min
QT interval [1, 3]: 271 ms and 221 ms
Heart rate (HR) [1, 4]: 197 beats/min and 108 beats/min
QT interval [1, 4]: 227 ms and 271 ms
Heart rate (HR) ([2]; 0.1 mg/kg/10 min i.v., individuals #1, #2): 105 beats/min
Heart rate (HR) [2, 5]: 104 beats/min
change in heart rate (HR) (Dogs; high-dose 3 mg/kg/10 min i.v.): significantly increased
change in heart rate (HR) (Dogs; low-dose 0.3 mg/kg/10 min i.v.): no significant change
occurrence of atrioventricular block (mouse): not reported
occurrence of atrioventricular block (dog): not reported
